Among the test systems are MDA-MB-231 breast; HCT-15 colon; K-562 leukemia; LOX IMVI melanoma; UACC-257 melanoma; ACHN renal; NCI-H460 lung; 786-0 renal; HOP-92 NSCLC; U251 CNS.
Common to all, as to assay: NCI anticancer screen, dose series, 48 h

Molecules are shown by their SMILES. Where “and” joins values, the source holds several entries; their conditions need not be identical. Identical values can stand only once.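 Dose response: 5 concentrations. Exposure: 48 h. Format: 96-well plates. Endpoint: linear interpolation; highest concentration if not reached. Abbreviation: GI50, concentration required for 50% inhibition of growth. TGI is the concentration that stops growth completely.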

Turning to `Cc1cnc(-c2ccc(-c3ccc(NC(=O)Nc4c(F)cc(F)cc4F)cc3F)c3c2C(=O)NC3)[nH]1`, the GI50 in the assay on MDA-MB-231 breast is 1590 nM and 2510 nM; in the assay on HCT-15 colon, 1820 nM and 948 nM; with K-562 leukemia, 329 nM and 660 nM; in the assay on LOX IMVI melanoma, 97.3 nM and 386 nM; in the assay on UACC-257 melanoma it was 333 nM and 970 nM; in the assay with ACHN renal it was 2550 nM and 1350 nM. The GI50 with NCI-H460 lung was 989 nM; in the assay on 786-0 renal it was 1250 nM; in the assay with HOP-92 NSCLC it was 1310 nM and 2010 nM; in the assay on U251 CNS it was 433 nM and 926 nM. For the same molecule, the TGI is 8160 nM and 11300 nM in the assay with MDA-MB-231 breast; above 100000 nM in the assay with HCT-15 colon; 2960 nM and 11500 nM with K-562 leukemia; 4220 nM and 14500 nM in the assay with LOX IMVI melanoma; 10200 nM and 14500 nM with UACC-257 melanoma; > 100000 nM and 28600 nM with ACHN renal. The TGI in the assay with NCI-H460 lung is 2750 nM; in the assay on 786-0 renal, 2860 nM; with HOP-92 NSCLC, 6370 nM and 12100 nM; with U251 CNS it was 1850 nM and 2510 nM.
With `COC(=O)c1c2c(c(C)[n+]([O-])c1C)C(=O)C(NCc1ccc(O)cc1)=CC2=O`, the GI50 is 1380 nM with MDA-MB-231 breast; 1430 nM with HCT-15 colon; 1630 nM in the assay on K-562 leukemia; 938 nM in the assay on LOX IMVI melanoma; 556 nM in the assay with UACC-257 melanoma; 1700 nM in the assay with ACHN renal. Also, the GI50 is 1580 nM with NCI-H460 lung, 2110 nM with 786-0 renal, 2520 nM in the assay on HOP-92 NSCLC and 1770 nM in the assay with U251 CNS. The TGI with MDA-MB-231 breast amounted to 4340 nM; with HCT-15 colon, 3180 nM; in the assay with K-562 leukemia, 7390 nM; in the assay with LOX IMVI melanoma, 2240 nM; with UACC-257 melanoma, 1970 nM; with ACHN renal, 3220 nM. The TGI in the assay on NCI-H460 lung worked out at 3350 nM; in the assay on 786-0 renal it was 4870 nM; in the assay on HOP-92 NSCLC, 5120 nM; with U251 CNS it was 5260 nM.

Source of the values: PubChem BioAssay (NCI).
